Results taken from US9421163B2, “Topical compositions comprising polyunsaturated fatty acids” (Dignity Sciences Limited, priority 2009, dated 2016).

What was measured:
[1] = test system: COX-2 enzymes; assay: Immunohistochemistry assay of COX-2 enzymes in ex vivo porcine ear skin (Franz diffusion cell, diaminobenzidine staining); type: cell-based; details: substance as donor phase in Franz cell, after six hours versus 0 hours
[2] = test system: COX-2; assay: Western Blotting of COX-2 expression in porcine skin after topical application; type: cell-based; details: topically applied, water control assigned 100%, FIG. 5
Method: A Western Blotting experiment was carried out to determine the effect of topically applied representative compounds of the invention DGLA and 15-HETrE on the expression of COX-2 in porcine skin. Water was used as a control.
The porcine skin membranes (as described in Example 1) were gently cleaned with de-ionised water before being homogenized (Silverson, Chesham, UK) in a RIPA lysis buffer [50 mM Tris-HCl (PH 7.4), 150 mM NaCl, 1 mM PMSF, 1 mM EDTA, 5 μg mL^−1 aprotinin, 5 μg mL^−1 leupeptin, 1% Triton X-100, 1% sodium deoxycholate, 0.1% SDS]. After 15 min incubation on ice, the lysates were clarified by centrifugation at 14000×g for 2×15 min and the supernatant stored at −80° C. for subsequent protein analysis.
Aliquots of 30 μg total protein were separated by SDS-PAGE, transferred to nitrocelullose membranes using the Trans-Blot electrophoretic Transfer Cell and briefly stained with Ponceau S to verify effective transfer. Immunoblots were incubated for 1 h in a blocking solution [tris-buffered saline (TBS)-Tween 20 containing 5% (w/v) commercial skimmed milk powder (Marvel) at room temperature. After washing, the membrane was probed overnight at 4° C. with COX-2 antibody at 1:1000, 5-LOX at 1:1000 and iNOS at 1:500 in (1:20 and 1:100 western blocking reagent and sodium azide solution respectively made up to volume with TBS tween). […]

[3] = test system: skin; details: applied directly to the skin; Xi et al. 2000; cited from earlier work

Structure (SMILES) | amount of dark stain (diaminobenzidine, COX-2 enzymes present in the skin) [1] | COX-2 expression relative to the control [2] | antiproliferative properties [3]
CC(C(=O)O)c1cccc(C(=O)c2ccccc2)c1 (stereo not drawn) [ketoprofen, reference compound] | the amount of dark stain has reduced | – | –
CCCCCC(O)/C=C/C=C\C/C=C\CCCCCCC(=O)O (stereo not drawn) [15-HETrE, 15-Hydroxy-eicosa-8Z, 11Z, 13E-trienoic acid] | the amount of dark stain has reduced | significant reduction | antiproliferative properties
CCCCC/C=C\C/C=C\C/C=C\CCCCCCC(=O)O [DGLA, Eicosa-8Z, 11Z, 14Z-trienoic acid] | the amount of dark stain has reduced | significant reduction | –
